The values below come from patent publication US4376783A, “Acylated guanidines and medicaments containing them” (Compagnie Francaise de Sucerie, priority 1980, dated 1983).

Structures are written as SMILES. “Also recorded” adds a separate entry of the source.

The test system of data set [1] is isoproterenol-induced cardio-acceleration and hypotension. The following applies: statement on the comparison drug; cited from earlier work.
Data set [2] can be described thus: Pharmacological tests: cardiac stimulant effect. The data set is classed as in vivo. The following applies: at relatively high doses (of the order of 50 mg). The source says:
Pharmacological tests have shown also that:

The subject of data set [3] is isoproterenol-induced cardio-acceleration and hypotension. As to the kind of experiment: Beta-blocking and sympathomimetic activity against isoproterenol-induced cardio-acceleration and hypotension in anaesthetised dogs. The data set is classed as in vivo, dog. The settings on record: for sympathomimetic activity / beta-blocking effect: product perfused i.v. at 25 mcg/kg/min, compared with Pindolol; for sympathomimetic activity: seen on cessation of isoprenaline; for beta-blocking effect: isoproterenol perfusion 0.2 mcg/kg/min; for beta-blocking properties relative to those of Pindolol: % of the beta-blocking properties of Pindolol, 25 mcg/kg/min i.v. How it is done:
These tests have been carried out on dogs (of both sexes) of weight comprised between 10 and 25 kg. These dogs were anesthetised by an injection of Pentobarbital (0.1 ml/kg of a 6% solution) and Chloralose (80 mg/kg). The blood pressure was recorded by means of a catheter inserted into the tibial artery and connected to a pressure cell, this pressure being recorded on a Beckman dynograph at the same time as an electrocardiogram; the latter enables the heart rhythm and the heart rate to be checked, integrated by a cardiotachometer.
The blood pressure and the electrocardiogram were first followed for five minutes. Then an isoproterenol solution was perfused into a cephalic vein, at the rate of 0.2 mcg/kg/min, namely 1 ml/min. After fiveperfusing for five minutes, the heart reached a tachycardiac level. At this moment, another perfusion was connected (into the cephalic vein of the other paw) of a Pindolol solution or of the product under study. The compounds of the invention was solubilized in 4 ml of DMF. The volume necessary for the perfusion was obtained by completing it with a 25% DMF solution in distilled water. All the products were injected at the rate of 25 mcg/kg/min. The
The extent to which the products were capable of antagonising the cardio-acceleration on the one hand and the hypotension on the other hand was examined.
After 35 minutes of perfusion, the isoprenaline injection was stopped. The Pindolol perfusion or that of the compound under study was interrupted after 40 minutes.

The next data set concerns mouse. Kind of data set: Acute toxicity by the oral route in the mouse. In kind it is in vivo. Here is the method: (§1) As for its toxicity, for the determination of which experiments were carried out on two animal species, namely the rat of the OFA strain and the mouse of the OF1 strain, by two routes of administration namely the oral route and the intravenous route, the results obtained were as follows:
(§2) ACUTE TOXICITY OF THE PRODUCT S.C.S. 149 A ADMINISTERED BY THE ORAL ROUTE IN THE MOUSE
(§3) Death took place within 48 hours after treatment
(§4) The product was solubilized, for oral administration, in 2% CMC in water; the volume administered was 25 ml/kg in the mouse and 5 ml/kg in the rat for the dose of 1 g/kg, 10 ml/kg for 2 g/kg and 20 ml/kg for 3.5 and 5 g/kg.
(§5) The product was administered by oesophagal intubation.
(§6) The product was injected at the level of the caudal vein. Before administration of the product, the animals were kept fasting for 16 to 17 hours.

Data set [4] in a line: Acute toxicity by the oral route in the mouse. The data set is classed as in vivo. The following applies: in vivo, po, LD 50. Here is the method: as §1, §2, §3, §4, §5, §6
A short description of data set [5]: Acute toxicity by the intravenous route in the rat. The data set is classed as in vivo. The following applies: in vivo, iv, LD 50. How it is done: as §1
(§7) ACUTE TOXICITY OF THE PRODUCT S.C.S. 149 ADMINISTERED BY THE INTRAVENOUS ROUTE IN THE RAT
(§8) Death took place within 48 hours after administration of the product.
(§9) For the intravenous route, the product was solubilized in:
(§10) PEG 400+sterile water (1/3+2/3) in the rat.
(§11) The volume administered was:
as §6

Data set [6] deals with rat. Kind of data set: Acute toxicity by the intravenous route in the rat. In kind it is in vivo. Here is the method:
as §1, §7, §8, §9, §10, §11, §6

The subject of a further data set is dogs. Kind of data set: Six-month toxicological test in dogs. In kind it is in vivo. The following applies: dogs of both sexes, daily for six months. Here is the method:
(§12) Also, toxicological tests have been carried out on 32 dogs (of both sexes) and 160 rats (of both sexes) for six months and have shown that S.C.S. 149 may be tolerated by the rats at a maximum daily dose of 500 mg/kg and by the dogs at a maximum daily dose of 100 mg/kg.

A short description of data set [7]: Acute toxicity by the intravenous route in the mouse. The settings on record: in vivo; for LD50 at 48 h: 48 hours after treatment; for LD50 at 336 h: 14 days after treatment. How it is done: as §1
ACUTE TOXICITY OF THE PRODUCT S.C.S. 149 ADMINISTERED BY THE INTRAVENOUS ROUTE IN THE MOUSE
ACUTE TOXICITY OF THE S.C.S. 149 PRODUCT ADMINISTERED BY THE INTRAVENOUS ROUTE IN THE MOUSE
LD 50 14 days after treatment.
as §9
sterile water in the mouse
as §11, §6

A short description of data set [8]: Acute toxicity by the oral route in the rat. In kind it is in vivo. The following applies: in vivo, po, LD 50. How it is done:
as §1
(§13) ACUTE TOXICITY OF THE S.C.S. 149 PRODUCT ADMINISTERED BY THE ORAL ROUTE IN THE RAT
(§14) Death occured within 48 hours after the treatment.
as §4, §5, §6

Data set [9] has as its system rat. As to the kind of experiment: Acute toxicity by the oral route in the rat. The data set is classed as in vivo. Here is the method: as §1, §13, §14, §4, §5, §6
Another data set has as its system rats. Kind of data set: Six-month toxicological test in rats. The data set is classed as in vivo. The settings on record: rats of both sexes, daily for six months. Here is the method:
as §12

The subject of another data set is isolated bronchi. As to the kind of experiment: Tests on isolated bronchi (bronchial level).
For another data set, the system named is beta 1 (isolated atria). Kind of data set: Tests on isolated atria (cardiac level).

Take `CC(C)NCC(O)COc1cccc2[nH]ccc12` (stereo not drawn) [Pindolol]: the “intrinsic sympathomimetic action among beta-blocking agents currently used in therapeutics” value in [1] is “intrinsic sympathomimetic action is greatest”.
For `CCCCNC(=O)N(CC(O)COc1cccc2ccccc12)C(C)C` (stereo not drawn) [SCS 128], in [2], the cardiac stimulant effect result was “cardiac stimulant effects; also recorded: cardiac stimulants”.
As for `CC(C)N(CC(O)COc1cccc2ccccc12)C(N)=O` (stereo not drawn) [SCS 131], the cardiac stimulant effect result in [2] is given as “cardiac stimulant effects; also recorded: cardiac stimulants”.
With `CCOC(=O)NC(=N)N(CC(O)COc1ccccc1Cl)C1CCCCC1` (stereo not drawn) [SCS 146], in data set [3], the sympathomimetic activity entry was “sympathomimetic action; also recorded: considerable sympathomimetic activity”.
For `CCOC(=O)NC(=N)N(CC(O)COc1ccc(Cl)cc1)C1CCCCC1` (stereo not drawn) [SCS 147], the sympathomimetic activity entry in data set [3] is given as “sympathomimetic activity still greater than that of the preceding compound”; in data set [3] (listed as 147), “sympathomimetic action”.
Turning to `CCOC(=O)NC(=N)N(CC(O)COc1ccc(Cl)cc1)C(C)C` (stereo not drawn) [SCS 148], the beta-blocking effect result in data set [3] is “certain betablocking action masked by intrinsic sympathomimetic properties”. Further, the figures for the sympathomimetic activity result in [3] and in data set [3] (listed as 148) were “intrinsic sympathomimetic properties” and “sympathomimetic action”, respectively.
Turning to `Cc1ccccc1OCC(O)CN(C(=N)NC(=O)c1ccccc1)C(C)C` (stereo not drawn) [SCS 149], the “LD 50” value in the data set with mouse (in vivo, po, 48 h) is recorded as 604.81 mg/kg; in the data set on rat [6] (in vivo, iv, 48 h) it was 40.37 mg/kg; in the data set on rat [9] (in vivo, po, 48 h), 2932.6 mg/kg. In addition, the “time of death after treatment” value in the data set on mouse (oral) and in the data set on rat [9] (oral) was at most 48 h in each case. Further, the LD50 (as a rule, the dose expected to kill half of the subjects tested) at 48 h was found to be 560 mg/kg in data set [4]; 35.3 mg/kg in data set [5]; 38.8 mg/kg in [7] (female mice); 37.2 mg/kg in data set [7] (male mice); 3330 mg/kg in data set [8]. The “time of death after administration” value in the data set on rat [6] (intravenous) is at most 48 h. For the same compound, the entries for the “maximum tolerated daily dose” value in the data set with dogs and in the data set on rats were 100 mg/kg and 500 mg/kg, respectively. Further, the LD50 at 336 h stood at 38.1 mg/kg in data set [7] (female mice) and 37.2 mg/kg in [7] (male mice). Moreover, the “blocking activity, type at the bronchial level” value with isolated bronchi is given as “of the competitive type”. The “beta-blocking properties relative to those of Pindolol” value in data set [3] was “about 60%”. Further, the values for the beta-blocking effect entry in data set [3] and in data set [3] (listed as 149) were “undisputable beta-blocking properties” and “beta-blocking effects”, respectively. Further, in [3], the sympathomimetic activity entry is given as “intrinsic sympathomimetic effects”. The “beta 1 blocking activity, type at the cardiac level” value in the data set with beta 1 (isolated atria) is given as “beta 1 blocking activity of competitive type”.
For `CCOC(=O)NC(=N)N(CC(O)COc1ccccc1C)C(C)C` (stereo not drawn) [SCS 150], in [3], the “beta-blocking properties relative to those of Pindolol” value is “about 70%”, the beta-blocking effect result is recorded as “adrenergic beta-blocking properties” and the sympathomimetic activity result is on record as “intrinsic sympathomimetic effects”. Also, in [3] (listed as 150), the beta-blocking effect entry is reported as “beta-blocking effects”.
In the case of `CCOC(=O)NC(=N)N(CC(O)COc1ccccc1C)C1CCCCC1` (stereo not drawn) [SCS 151], the sympathomimetic activity result is listed as “sympathomimetic characteristics” in [3] and “sympathomimetic action” in data set [3] (listed as 151).
